Data on two molecules can be found in US20250281495A1, “METHODS FOR INHIBITING INFLAMMATION AND PROGRESSION OF ATHEROSCLEROTIC PLAQUES AND CARDIOVASCULAR EVENTS IN PATIENTS WITH CEREBRO- AND CARDIO-VASCULAR DISEASE” (ICAHN SCHOOL OF MEDICINE AT MOUNT SINAI, priority 2021, published 2025).

Structures are written as SMILES.

This assay deals with kinase phosphorylation (pCREB, pp38, pMAPKA2P, pS6, pERK1/2) in PBMCs. Description: CyTOF screening of candidate small molecules in healthy PBMCs stimulated with atherosclerotic plasma. Format: cell-based, human. As to conditions: for reversal of the inflammatory signature activated by atherosclerotic plasma: CyTOF screening. The method, then: To test the efficacy of candidate small molecules in reversing immune response of PBMCs to atherosclerotic plasma, the inventors examined cell type-specific pharmacologic effects of selected candidate compounds. Using healthy PBMCs, the inventors assessed the activity of selected small molecules in the presence of atherosclerotic plasma stimulation that followed 30 minutes of pretreatment with each candidate compounds. Using CyTOF mass-cytometry, the inventors measured the specific inhibition of kinase phosphorylation (i.e., pCREB, pp38, pMAPKA2P, pS6, pERK1/2) in each cell type at the single cell level for each drug (FIGS. 8 and 9).

[1] abbreviates: CD16+ monocytes and CD1c+ DC, atherosclerotic plasma.
The mark [2] stands for this setting: CD14+ and CD16+ monocytes and CD1c+ DC (these cells).
The mark [3] stands for this setting: CD14+ and CD16+ monocytes and CD1c+ DC, atherosclerotic plasma.

In the case of `CC[C@H](C)C(=O)O[C@H]1CCC=C2C=C[C@H](C)[C@H](CC[C@@H]3C[C@@H](O)CC(=O)O3)[C@H]21` [Mevastatin], the “reversal of the inflammatory signature activated by atherosclerotic plasma” value was “did not fully reverse”. In addition, the p38 phosphorylation entry (CD1c+ DC, atherosclerotic plasma) was “inhibited”. In addition, the ERK1/2 phosphorylation entry under setting [1] is on record as “inhibited”. For the same molecule, under “atherosclerotic plasma”, the “phosphorylation of major kinases (e.g., CREB and S6) implicated in the inflammatory transcriptional reprogramming” value was “did not affect”.
As to `CS(=O)(=O)O.Cn1cc(C2=C(c3cn(CCCSC(=N)N)c4ccccc34)C(=O)NC2=O)c2ccccc21` [Ro 31-8220 mesylate], the “reversal of the inflammatory signature activated by atherosclerotic plasma” value is recorded as “reversed”. Under setting [2], the “ERK1/2 phosphorylation in response to atherosclerosis plasma” value is on record as “not inhibited” and the “p38 phosphorylation in response to atherosclerosis plasma” value is “not inhibited”. Further, under setting [3], the CREB phosphorylation result is “significant inhibition” and the S6 phosphorylation entry is “significant inhibition”. Besides, the MAPKA2P phosphorylation result under setting [1] is “significant inhibition”. The “inhibition of most specific kinase phosphorylation activated by atherosclerosis plasma” value (cell-specificity for monocytes and CD1c+ DC, 30 minutes of pretreatment) is on record as “significant inhibition”.
